In PMC12584752, “Covalent fragment screening to inhibit the E3 ligase activity of bacterial NEL enzymes SspH1 and SspH2” (RSC Chemical Biology, 2025):

Legend:
IpaH9.8 (21–545) = target: T1, IpaH9.8 (21–545) (Shigella flexneri, UniProt Q8VSC3); test: Intact protein LC-MS covalent fragment labelling; format: binding; settings: dilution series 100–6.25 μM, 24 hours at 4 °C
T1 construct: Recombinant IpaH9.8 (21–545) and SspH1 (161–700) were incubated at 0.5 μM; His-tag (N, cleaved yes); made in house; host or cells: E. coli BL21
T1 sequence (Q8VSC3 21-545): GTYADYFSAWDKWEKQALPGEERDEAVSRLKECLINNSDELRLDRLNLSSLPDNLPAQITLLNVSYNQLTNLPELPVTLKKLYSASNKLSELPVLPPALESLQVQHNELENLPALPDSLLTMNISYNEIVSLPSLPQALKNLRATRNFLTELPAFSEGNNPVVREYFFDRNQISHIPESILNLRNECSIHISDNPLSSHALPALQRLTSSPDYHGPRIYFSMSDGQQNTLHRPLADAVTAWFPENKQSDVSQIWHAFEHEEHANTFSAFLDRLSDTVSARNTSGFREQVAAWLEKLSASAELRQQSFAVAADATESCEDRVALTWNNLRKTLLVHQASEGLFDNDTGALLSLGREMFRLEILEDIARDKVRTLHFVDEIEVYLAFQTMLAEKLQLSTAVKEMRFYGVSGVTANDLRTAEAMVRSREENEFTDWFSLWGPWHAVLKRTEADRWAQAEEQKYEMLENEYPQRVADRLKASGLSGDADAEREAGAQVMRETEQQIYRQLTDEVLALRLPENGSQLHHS
Description: A diverse library of 227 compounds with chloroacetamide warheads, featuring a diversity of molecular weight (162–321 Da) and clog P (−1.4 to 3.4) (Table S1), were screened against Salmonella and Shigella NEL E3 ligases using our intact protein liquid chromatography mass spectrometry (LC-MS) platform as previously described.[39,40] Briefly, recombinant SspH1 (161–700[30]) and IpaH9.8 (21–545[29]) (Fig. […] 1C). Raw counts were deconvoluted and the labelling percentage calculated by detection and comparison of protein and protein-fragment molecular weights.
Fig. 1 Intact protein LCMS screening of covalent fragment library against NEL proteins. (A) Cartoon depicting conserved NEL E3 ligase domains; (B) overlaid structures of SspH1 (blue, PDB 9H6W[30]) and IpaH9.8 (green, PDB 6LOL[29]) aligned on NEL domain; (C) workflow of covalent fragment screening using intact LC-MS; (D) fragment labelling percentages for SspH1 and IpaH9.8 with fragments 1–3 highlighted. […]
To mitigate the risk of selecting compounds which indiscriminately recognise ubiquitin binding proteins, we next performed preliminary selectivity studies with compounds 6 and 7 against human ubiquitin system proteins. […] In parallel, we tested the compounds against related NEL E3 ligases SspH2 and IpaH9.8. […]

SspH1 (161–700) = SspH1 (161–700) (Salmonella typhimurium, UniProt D0ZVG2); test: Substrate (PKN1) ubiquitination assay; format: biochemical; design: SspH1 (5 μM, 161–700) was prelabelled at 350 rpm, RT for 18 hours; His-tag (N, cleaved yes); made in house; host or cells: E. coli BL21; settings: SspH1 pre-labelled with compound overnight at RT; 0–30 minutes
Sequence of SspH1 (161–700) (D0ZVG2 161-700): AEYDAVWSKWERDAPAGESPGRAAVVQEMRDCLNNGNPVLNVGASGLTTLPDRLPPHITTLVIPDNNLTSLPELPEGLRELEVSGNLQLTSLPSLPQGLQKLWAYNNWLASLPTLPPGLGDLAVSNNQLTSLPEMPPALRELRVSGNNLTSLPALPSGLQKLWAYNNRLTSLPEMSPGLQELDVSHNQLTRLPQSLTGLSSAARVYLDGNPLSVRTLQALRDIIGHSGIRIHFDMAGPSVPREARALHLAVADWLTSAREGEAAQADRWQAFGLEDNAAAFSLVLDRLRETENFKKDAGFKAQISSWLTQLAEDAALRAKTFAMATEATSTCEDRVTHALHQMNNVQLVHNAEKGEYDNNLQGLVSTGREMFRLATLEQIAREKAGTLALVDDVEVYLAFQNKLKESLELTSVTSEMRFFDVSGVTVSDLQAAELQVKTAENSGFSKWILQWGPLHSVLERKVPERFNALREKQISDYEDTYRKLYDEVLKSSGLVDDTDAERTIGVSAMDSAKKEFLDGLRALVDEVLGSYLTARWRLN
Experimental: Fig. 4 SspH1 in vitro inhibition with compounds 6 and 7. (A) Discharge assay schematic; (B) E2–Ub discharge time course assay with SspH1 pre-treated with either DMSO or compounds 6 or 7. UbcH5A–Ub-cy3 (1 μM) was incubated at RT for 0–30 minutes with SspH1 (residues 161–700, 50 nM) which had been pre-labelled with 6 or 7 at RT overnight. (C) Substrate ubiquitination assay schematic; (D) PKN1 ubiquitination time course assay with SspH1 pre-treated with either DMSO or compounds 6 or 7. A reaction of UBA1 (0.1 μM), UbcH5A (2 μM), ubiquitin (20 μM), PKN1 HR1b (2 μM, residues 122–199) and 10 mM ATP was incubated at RT for 0–30 minutes with SspH1 (residues 161–700, 0.5 μM) which had been pre-labelled with 6 or 7 at RT overnight.
Alternatively, substrate ubiquitination can be followed in vitro using a reconstituted ubiquitin enzymatic cascade, where recombinant ubiquitin, E1, E2, E3 and substrate are incubated with ATP (Fig. 4C). With SspH1, E3 ligase activity can then be observed by ubiquitination of its substrate PKN1.[25] This assay represents a higher order of complexity and involves three enzymes with catalytic cysteines (E1, E2 and E3) and is closer to in situ E3 activity. We compared SspH1 ubiquitination activity when SspH1 was pre-treated with DMSO or compound 6 or 7 (Fig. 4D), again overnight at room temperature to ensure complete labelling. […]

| SMILES | labelling of IpaH9.8 (IpaH9.8 (21–545)) | PKN1 ubiquitination (SspH1 (161–700)) |
| --- | --- | --- |
| Cl.O=C(CCl)N1CCC(n2c(-c3ccc(C(F)(F)F)cc3)nc3ccccc32)CC1 [compound 7] | minimal labelling | completely abrogated |
| Cc1cc(-c2nc3ccccc3n2C2CCN(C(=O)CCl)CC2)cc(C)c1O.Cl [compound 6] | minimal labelling | completely abrogated |
